A short description of data set [1]: Pharmacokinetic study in minipigs (terminal half-life after i.v. administration). It counts as in vivo. Particulars: female, Göttingen, minipig, iv. As for the experimental part:
The purpose of this example is to determine the half-life in vivo of the derivatives of the present invention after i.v. administration to minipigs, i.e. the prolongation of their time in the body and thereby their time of action. This is done in a pharmacokinetic (PK) study, where the terminal half-life of the derivative in question is determined. By terminal half-life is generally meant the period of time it takes to […] certain plasma concentration, measured after the initial distribution phase. Female Göttingen minipigs were obtained from Ellegaard Göttingen Minipigs (Dalmose, Denmark) approximately 7-14 months of age and weighing from approximately 16-35 kg were used in the studies. The minipigs were housed individually and fed restrictedly once daily with SDS minipig diet (Special Diets Services, Essex, UK). After at 3 weeks of acclimatisation two permanent central venous catheters were implanted in vena cava caudalis in each animal. The animals were allowed 1 week recovery after the surgery, and were then used for repeated pharmacokinetic studies with a suitable wash-out period between successive derivative dosing. The animals were fasted for approximately 18 hours before dosing and from 0 to 4 hours after dosing, but had adlibitum access to water during the whole period. […] Blood samples (for example 0.8 mL) were collected in 8 mM EDTA buffer and then centrifuged at 4° C. and 1942 g for 10 minutes. Plasma was pipetted into Micronic tubes on dry ice and kept at -20° C. until analysed for plasma concentration of the compounds using ELISA, or a similar antibody-based assay, or LCMS. […] (Pharsight Inc., Mountain View, CA, USA), and the resulting terminal half-lives (harmonic mean) determined.

The target in data set [2] is human GLP-1 receptor (Homo sapiens, UniProt P43220). As to the kind of experiment: cell-based. The following applies: hGLP-1R.
Data set [3] deals with T1, mouse GIP receptor (Mus musculus, UniProt Q0P543).
T1 sequence (Q0P543 19-460): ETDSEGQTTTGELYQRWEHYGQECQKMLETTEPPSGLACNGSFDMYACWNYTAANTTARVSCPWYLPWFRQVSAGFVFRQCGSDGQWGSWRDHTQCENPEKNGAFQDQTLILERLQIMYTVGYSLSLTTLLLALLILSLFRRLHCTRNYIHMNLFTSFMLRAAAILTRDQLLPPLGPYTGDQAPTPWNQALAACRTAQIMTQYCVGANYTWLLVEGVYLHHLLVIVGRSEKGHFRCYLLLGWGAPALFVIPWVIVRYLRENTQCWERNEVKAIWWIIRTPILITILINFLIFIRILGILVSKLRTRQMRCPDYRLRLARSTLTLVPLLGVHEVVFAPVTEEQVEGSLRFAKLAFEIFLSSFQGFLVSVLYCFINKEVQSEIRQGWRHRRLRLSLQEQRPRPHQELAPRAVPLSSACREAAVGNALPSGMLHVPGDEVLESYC
As to the kind of experiment: cell-based.

For data set [4], the target named is T2, mouse GLP-1 receptor (Mus musculus, UniProt O35659).
T2 sequence (O35659 22-463): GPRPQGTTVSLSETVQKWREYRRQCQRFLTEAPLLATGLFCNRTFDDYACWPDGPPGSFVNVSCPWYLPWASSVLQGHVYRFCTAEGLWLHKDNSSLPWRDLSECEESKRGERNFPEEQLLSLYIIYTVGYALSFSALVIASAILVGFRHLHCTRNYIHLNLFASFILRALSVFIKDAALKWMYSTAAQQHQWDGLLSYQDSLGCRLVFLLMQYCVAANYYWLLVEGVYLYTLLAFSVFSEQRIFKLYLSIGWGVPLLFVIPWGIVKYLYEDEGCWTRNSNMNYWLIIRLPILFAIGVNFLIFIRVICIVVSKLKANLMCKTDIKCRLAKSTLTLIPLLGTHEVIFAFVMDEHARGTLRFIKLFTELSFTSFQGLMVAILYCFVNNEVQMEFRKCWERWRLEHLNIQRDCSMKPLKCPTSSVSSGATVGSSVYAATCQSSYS

The target of data set [5] is human glucagon receptor (Homo sapiens, UniProt P47871). As to the kind of experiment: cell-based.
Experimental: The in vitro functional potency is the measure of target receptor activation in a whole cell assay.
In vitro functional potency was determined by measuring the response of the target receptor in a reporter gene assay in individual cell lines. […] When the respective receptor is activated, it results in the production of cAMP, which in turn results in expression of the luciferase protein. When assay incubation is completed, luciferase substrate (luciferin) is added resulting in the enzymatic conversion of luciferin to oxyluciferin and producing bioluminescence. The luminescence is measured as the readout for the assay.
The cells lines used in these assays were BHK cells with BHKTS13 as a parent cell line. The cell lines were derived from a clone containing the CRE luciferase element and were established by further transfection with the respective receptor to obtain the relevant cell line.
The cells were cultured at 37° C. with 5% CO2 in Cell Culture Medium. They were aliquoted and stored in liquid nitrogen. The cells were kept in continuous culture and were seeded out the day before each assay.
GLP-1R and GcgR Cell Culture Medium consisted of DMEM medium with 10% FBS, 500 μg/mL G418, and 300 μg/mL hygromycin. GIPR Cell Culture Medium consisted of DMEM medium with 10% FBS, 400 μg/mL G418, and 300 μg/mL hygromycin. Assay Buffer consisted of DMEM w/o phenol red, 10 mM Hepes, 1×Glutamax, 1% ovalbumin, and 0.1% Pluronic F-68 with the addition of HSA at twice the final assay concentration.
• 1) Cells were plated at 5000 cells/well and incubated overnight in the assay plate. • 2) Cells were washed once in DPBS. • 3) Stocks of the test compounds and reference compounds in concentrations ranging from 100-300 μM were diluted 1:150 in Assay Buffer. Compounds were then diluted 1:10 in column 1 of a 96 deep well dilution plate and then carried across the row creating a 3.5 fold, 12 point dilution curve. • 4) Assay Buffer (50 μl aliquot) with or without HSA was added to each well in the assay plate. • 5) A 50 μl aliquot of compound or blank was transferred from the dilution plate to the assay plate containing the Assay Buffer with or without HSA. • 6) The assay plate was incubated for 3 h in a 5% CO2 incubator at 37° C. 7) The cells were washed once with DPBS. • 8) A 100 μl aliquot of DPBS was added to each well of the assay plate. • 9) A 100 μl aliquot of steadylite plus reagent (light sensitive) was added to each well of the assay plate. • 10) Each assay plate was covered with aluminum foil to protect it from light and shaken at 250 RPM for 30 min at room temperature. • 11) Each assay plate was read in a microtiter plate reader.
The data from the microtiter plate reader was first regressed in an Excel in order to calculate the x-axis, log scale concentrations based on the individual test compound's stock concentration and the dilutions of the assay. […] The software performs a non-linear regression (log(agonist) vs response). A minimum of two replicates was measured for each sample. The reported values are averages of the replicates.

Read-outs that look alike come from different tables or passages of the source. Starred links: 1 amine or outer side, 2 acyl side, 3 side chain; linkers in the order of their positions; H or OH if unused. Non-standard residues stand in square brackets, D forms with d. Residues, ends and D or L forms follow the SMILES beside them. Groups on a side chain read outwards from the residue. *: point of attachment. C20 diacid = O=C(O)CCCCCCCCCCCCCCCCCCC(=O)*; γGlu = O=C(O)[C@H](CCC(=O)[*:2])N[*:1]; εLys = N[C@@H](CCCCN[*:1])C(=O)[*:2]; Trx = NC[C@H]1CC[C@H](C(=O)O)CC1; AEEA = NCCOCCOCC(=O)O; Aib = CC(C)(N)C(=O)O

Sequence of human GLP-1 receptor (P43220 24-463): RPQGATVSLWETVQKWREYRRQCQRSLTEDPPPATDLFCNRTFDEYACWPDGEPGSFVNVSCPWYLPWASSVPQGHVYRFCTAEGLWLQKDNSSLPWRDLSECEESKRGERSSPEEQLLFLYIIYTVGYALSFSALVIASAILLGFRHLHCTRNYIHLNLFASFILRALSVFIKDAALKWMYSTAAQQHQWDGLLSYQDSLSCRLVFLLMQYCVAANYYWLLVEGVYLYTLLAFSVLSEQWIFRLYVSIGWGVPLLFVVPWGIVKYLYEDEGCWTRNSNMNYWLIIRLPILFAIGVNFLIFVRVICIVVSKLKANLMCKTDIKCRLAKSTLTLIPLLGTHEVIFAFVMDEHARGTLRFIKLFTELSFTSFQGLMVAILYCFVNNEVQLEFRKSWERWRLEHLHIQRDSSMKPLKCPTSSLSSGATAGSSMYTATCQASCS
Sequence of human glucagon receptor (P47871 26-477): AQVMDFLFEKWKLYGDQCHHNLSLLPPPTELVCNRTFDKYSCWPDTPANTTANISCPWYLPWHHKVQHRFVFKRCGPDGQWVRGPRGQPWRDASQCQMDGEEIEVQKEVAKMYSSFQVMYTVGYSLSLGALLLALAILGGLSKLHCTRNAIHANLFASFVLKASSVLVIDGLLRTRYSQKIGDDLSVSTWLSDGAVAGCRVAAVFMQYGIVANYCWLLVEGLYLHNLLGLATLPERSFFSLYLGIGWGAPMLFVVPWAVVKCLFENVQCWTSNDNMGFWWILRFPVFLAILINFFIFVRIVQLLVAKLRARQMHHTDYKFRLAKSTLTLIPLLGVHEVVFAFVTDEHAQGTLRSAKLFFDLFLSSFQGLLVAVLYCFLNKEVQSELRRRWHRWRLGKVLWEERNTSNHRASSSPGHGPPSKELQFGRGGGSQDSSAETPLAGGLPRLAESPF

The compound `CC[C@H](C)[C@H](NC(=O)[C@H](CO)NC(=O)[C@H](Cc1ccc(O)cc1)NC(=O)[C@H](CC(=O)O)NC(=O)[C@H](CO)NC(=O)[C@@H](NC(=O)[C@H](Cc1ccccc1)NC(=O)[C@@H](NC(=O)CNC(=O)[C@H](CCC(=O)O)NC(=O)C(C)(C)NC(=O)[C@@H](N)Cc1ccc(O)cc1)[C@@H](C)O)[C@@H](C)O)C(=O)N[C@@H](Cc1ccc(O)cc1)C(=O)N[C@@H](CC(C)C)C(=O)N[C@@H](CCC(=O)O)C(=O)N[C@@H](CCC(=O)O)C(=O)N[C@@H](CCC(N)=O)C(=O)N[C@@H](C)C(=O)N[C@@H](C)C(=O)NC(C)(C)C(=O)N[C@@H](CCCCNC(=O)[C@@H](N)CCCCNC(=O)[C@@H](N)CCCCNC(=O)CC[C@H](NC(=O)CCCCCCCCCCCCCCCCCCC(=O)O)C(=O)O)C(=O)N[C@@H](Cc1ccccc1)C(=O)N[C@H](C(=O)N[C@@H](CC(N)=O)C(=O)N[C@@H](Cc1c[nH]c2ccccc12)C(=O)N[C@@H](CC(C)C)C(=O)N[C@@H](CC(C)C)C(=O)N[C@@H](C)C(=O)NCC(=O)NCC(=O)N1CCC[C@H]1C(=O)N[C@@H](CO)C(=O)N[C@@H](CO)C(=O)NCC(=O)N[C@@H](C)C(=O)N1CCC[C@H]1C(=O)N1CCC[C@H]1C(=O)N1CCC[C@H]1C(=O)N[C@@H](CO)C(N)=O)C(C)C` [Compound 27] (H-Y[Aib]EGTFTSDYSIYLEEQAA[Aib]K([εLys-εLys-γGlu-C20 diacid])FVNWLLAGGPSSGAPPPS-NH2; N-terminus assumed) had a half-life in data set [1] (in vivo) of 88 h. Moreover, the EC50 in data set [2] (CRE Luc 0% HSA EC50, 0% HSA) was found to be 0.0033 nM; in data set [2] (CRE Luc 1% HSA EC50, 1% HSA) it was 0.195 nM; in data set [3], 0.545 nM; in data set [4], 0.0042 nM.
In turn, `CC[C@H](C)[C@H](NC(=O)[C@H](CO)NC(=O)[C@H](Cc1ccc(O)cc1)NC(=O)[C@H](CC(=O)O)NC(=O)[C@H](CO)NC(=O)[C@@H](NC(=O)[C@H](Cc1ccccc1)NC(=O)[C@@H](NC(=O)CNC(=O)[C@H](CCC(=O)O)NC(=O)C(C)(C)NC(=O)[C@@H](N)Cc1ccc(O)cc1)[C@@H](C)O)[C@@H](C)O)C(=O)N[C@@H](Cc1ccc(O)cc1)C(=O)N[C@@H](CC(C)C)C(=O)N[C@@H](CCC(=O)O)C(=O)N[C@@H](CCCCN)C(=O)N[C@@H](CCCCNC(=O)COCCOCCNC(=O)COCCOCCNC(=O)CC[C@H](NC(=O)[C@H]1CC[C@H](CNC(=O)CCCCCCCCCCCCCCCCCCC(=O)O)CC1)C(=O)O)C(=O)N[C@@H](C)C(=O)N[C@@H](C)C(=O)NC(C)(C)C(=O)N[C@@H](CCC(=O)O)C(=O)N[C@@H](Cc1ccccc1)C(=O)N[C@H](C(=O)N[C@@H](CC(N)=O)C(=O)N[C@@H](Cc1c[nH]c2ccccc12)C(=O)N[C@@H](CC(C)C)C(=O)N[C@@H](CC(C)C)C(=O)N[C@@H](C)C(=O)NCC(=O)NCC(=O)N1CCC[C@H]1C(=O)N[C@@H](CO)C(=O)N[C@@H](CO)C(=O)NCC(=O)N[C@@H](C)C(=O)N1CCC[C@H]1C(=O)N1CCC[C@H]1C(=O)N1CCC[C@H]1C(=O)N[C@@H](CO)C(N)=O)C(C)C` [Compound 22] (H-Y[Aib]EGTFTSDYSIYLEKK([AEEA-AEEA-γGlu-Trx-C20 diacid])AA[Aib]EFVNWLLAGGPSSGAPPPS-NH2; N-terminus assumed) gave a half-life in data set [1] (in vivo) of 95 h. Besides, the EC50 in data set [2] (CRE Luc 0% HSA EC50, 0% HSA) is 0.0033 nM; in data set [2] (CRE Luc 1% HSA EC50, 1% HSA) it was 1.13 nM; in data set [3] it was 0.124 nM; in data set [5] it was over 10 nM; in data set [4], 0.0021 nM.
In data set [1] (in vivo), `CC[C@H](C)[C@H](NC(=O)[C@H](CO)NC(=O)[C@H](Cc1ccc(O)cc1)NC(=O)[C@H](CC(=O)O)NC(=O)[C@H](CO)NC(=O)[C@@H](NC(=O)[C@H](Cc1ccccc1)NC(=O)[C@@H](NC(=O)CNC(=O)[C@H](CCC(=O)O)NC(=O)C(C)(C)NC(=O)[C@@H](N)Cc1ccc(O)cc1)[C@@H](C)O)[C@@H](C)O)C(=O)N[C@@H](Cc1ccc(O)cc1)C(=O)N[C@@H](CC(C)C)C(=O)N[C@@H](CCC(=O)O)C(=O)N[C@@H](CCCCNC(=O)COCCOCCNC(=O)COCCOCCNC(=O)CC[C@H](NC(=O)[C@H]1CC[C@H](CNC(=O)CCCCCCCCCCCCCCCCCCC(=O)O)CC1)C(=O)O)C(=O)N[C@@H](CCC(N)=O)C(=O)N[C@@H](C)C(=O)N[C@@H](C)C(=O)NC(C)(C)C(=O)N[C@@H](CCC(=O)O)C(=O)N[C@@H](Cc1ccccc1)C(=O)N[C@H](C(=O)N[C@@H](CC(N)=O)C(=O)N[C@@H](Cc1c[nH]c2ccccc12)C(=O)N[C@@H](CC(C)C)C(=O)N[C@@H](CC(C)C)C(=O)N[C@@H](C)C(=O)NCC(=O)NCC(=O)N1CCC[C@H]1C(=O)N[C@@H](CO)C(=O)N[C@@H](CO)C(=O)NCC(=O)N[C@@H](C)C(=O)N1CCC[C@H]1C(=O)N1CCC[C@H]1C(=O)N1CCC[C@H]1C(=O)N[C@@H](CO)C(N)=O)C(C)C` [Compound 21] (H-Y[Aib]EGTFTSDYSIYLEK([AEEA-AEEA-γGlu-Trx-C20 diacid])QAA[Aib]EFVNWLLAGGPSSGAPPPS-NH2; N-terminus assumed) gave a half-life of 62 h. Also, the EC50 is 0.003 nM in data set [2] (CRE Luc 0% HSA EC50, 0% HSA); 0.465 nM in data set [2] (CRE Luc 1% HSA EC50, 1% HSA); 0.0366 nM in data set [3]; over 10 nM in data set [5]; 0.0026 nM in data set [4].
Consider `CC[C@H](C)[C@H](NC(=O)[C@H](CO)NC(=O)[C@H](Cc1ccc(O)cc1)NC(=O)[C@H](CC(=O)O)NC(=O)[C@H](CO)NC(=O)[C@@H](NC(=O)[C@H](Cc1ccccc1)NC(=O)[C@@H](NC(=O)CNC(=O)[C@H](CCC(=O)O)NC(=O)C(C)(C)NC(=O)[C@@H](N)Cc1ccc(O)cc1)[C@@H](C)O)[C@@H](C)O)C(=O)N[C@@H](Cc1ccc(O)cc1)C(=O)N[C@@H](CC(C)C)C(=O)N[C@@H](CCC(=O)O)C(=O)N[C@@H](CCCCN)C(=O)N[C@@H](CCCCNC(=O)[C@@H](N)CCCCNC(=O)[C@@H](N)CCCCNC(=O)CC[C@H](NC(=O)CCCCCCCCCCCCCCCCCCC(=O)O)C(=O)O)C(=O)N[C@@H](C)C(=O)N[C@@H](C)C(=O)NC(C)(C)C(=O)N[C@@H](CCC(=O)O)C(=O)N[C@@H](Cc1ccccc1)C(=O)N[C@H](C(=O)N[C@@H](CCC(N)=O)C(=O)N[C@@H](Cc1c[nH]c2ccccc12)C(=O)N[C@@H](CC(C)C)C(=O)N[C@@H](CC(C)C)C(=O)N[C@@H](CCC(=O)O)C(=O)NCC(=O)NCC(=O)N1CCC[C@H]1C(=O)N[C@@H](CO)C(=O)N[C@@H](CO)C(=O)NCC(=O)N[C@@H](C)C(=O)N1CCC[C@H]1C(=O)N1CCC[C@H]1C(=O)N1CCC[C@H]1C(=O)N[C@@H](CO)C(N)=O)C(C)C` [Compound 35] (H-Y[Aib]EGTFTSDYSIYLEKK([εLys-εLys-γGlu-C20 diacid])AA[Aib]EFVQWLLEGGPSSGAPPPS-NH2; N-terminus assumed), for which the half-life in data set [1] (plasma, minipigs, i.v. administration, harmonic mean, read-out: Terminal half-life t1/2 (converted)) was 90 h. Moreover, the EC50 in data set [2] (CRE Luc 0% HSA EC50, 0% HSA) came out at 0.0022 nM; in data set [2] (CRE Luc 1% HSA EC50, 1% HSA) it was 0.169 nM; in data set [3], 0.0213 nM; in data set [4], 0.0013 nM.

The values are drawn from patent US20230346961A1, “GLP-1 AND GIP RECEPTOR CO-AGONISTS” (Novo Nordisk A/S, priority 2020, published 2023).
